# Data as given in patent US10045999B2, “Nutritional composition for the stimulation of muscle protein synthesis” (N. V. Nutricia, priority 2010, dated 2018).
# Marks after values point to notes of the source that are not given here.
# Test system: C2C12 myotubes
# Assay: Protein synthesis rate (FSR) in C2C12 myotubes after pretreatment with 1,25(OH)2 Vitamin D3, with or without leucine and insulin
# Format: cell-based, mouse
# Settings: for increase in muscle protein synthesis rate: C2C12 myotubes treated only with vitamin D3, with leucine alone, or with both; for change (%) in protein synthesis rate vs no pretreatment with vitamin D3: 72 h pretreatment
# Description: An experimental in vitro study is performed to evaluate the synergistic or additional action of leucine and vitamin D on intracellular pathways regulating protein synthesis in muscle cells.
# C2C12 mouse myoblasts are obtained from the American Type Culture Source Collection (no. CRL-1772). Myoblasts are cultured at 37° C. in an atmosphere of 5% CO2 in grown medium consisting of Dulbecco's modified Eagle's medium (DMEM) supplemented with 10% foetal calf serum and antibiotics. Myotube C2C12 differentiation is induced by withdrawing foetal calf serum from confluent cells and adding 10 μg/ml insulin, 5 μg/ml transferrin and 2% horse serum.
# Confluent C2C12 myotubes are treated with vehicles alone or with different doses of 1,25(OH)2 D3. Subsequently, the cells are deprived of horse serum by incubation in a serum-free medium for the two remaining hours. During this deprivation period, different amounts of leucine and insulin are added to the medium before harvesting cells.
# Medium with or without leucine supplementation are used to assess the synergistic or additional action of leucine and vitamin D on intracellular pathways regulating protein synthesis (Akt, mTOR) and/or on direct measure of protein synthesis.
# Protein synthesis rate (FSR) in C2C12 myotubes after 72 h pretreatments with 0, 1 or 10 nm of 1,25(OH)2 Vitamin D3 is depicted in FIG. 1.
# FIG. 1: Protein synthesis rate (FSR) in C2C12 myotubes after 72 h pretreatments with 0, 1 or 10 nm of 1,25(OH)2 Vitamin D3.
Compound,increase in muscle protein synthesis rate [%],"effect on muscle protein synthesis (in words) (C2C12 myotubes, vitamin D3 dose 1 or 10 nM)","change (%) in protein synthesis rate vs no pretreatment with vitamin D3 ([Vitamin D] = 1 nM, Ins + leu, vs [Vit D] = 0 Ins + leu)","change (%) in protein synthesis rate vs no pretreatment with vitamin D3 ([Vitamin D] = 1 nM, No stim, vs [Vit D] = 0 No stim)","change (%) in protein synthesis rate vs no pretreatment with vitamin D3 ([Vitamin D] = 10 nM, Ins + leu, vs [Vit D] = 0 Ins + leu)","change (%) in protein synthesis rate vs no pretreatment with vitamin D3 ([Vitamin D] = 10 nM, No stim, vs [Vit D] = 0 No stim)"
"C=C1/C(=C\C=C2/CCC[C@]3(C)[C@@H]([C@H](C)CCCC(C)(C)O)CC[C@@H]23)C[C@@H](O)C[C@@H]1O [Vitamin D, 1,25-dihydroxycholecalciferol]",14.3,can stimulate muscle protein synthesis independently of leucine presence,9.8* %,14.0* %,14.3* %,14.3* %
"CC(C)C[C@H](N)C(=O)O [leucine, L-leucine]",10.7,,,,,
